Test system: not listed separately
Assay: Cytotoxicity against human ACHN cells assessed as growth inhibition at 10 uM after 48 hrs by SRB assay relative to control
Type: functional
Settings: read-out: GI
Molecule `COc1ccc(CN2c3ccccc3Sc3ccccc32)c(C(F)(F)F)c1` has an inhibition of growth at 10 µM of 51%.

Test system: not listed separately
Assay: Cytotoxicity against human Hs 578T cells assessed as growth inhibition at 10 uM after 48 hrs by SRB assay relative to control
Type: functional
Settings: read-out: GI
Work on `COc1ccc(CN2c3ccccc3Sc3ccccc32)c(C(F)(F)F)c1` yielded an inhibition of growth at 10 µM of 77%.

Test system: not listed separately
Assay: Cytotoxicity against human PC3 cells assessed as growth inhibition at 10 uM after 48 hrs by SRB assay relative to control
Type: functional
Settings: PC-3, 48 h, read-out: GI
Molecule `COc1ccc(CN2c3ccccc3Sc3ccccc32)c(C(F)(F)F)c1` has an inhibition of growth at 10 µM of 73%.

Test system: not listed separately
Assay: Cytotoxicity against human NCI-H460 cells assessed as growth inhibition at 10 uM after 48 hrs by SRB assay relative to control
Type: functional
Settings: NCI-H460, 48 h, read-out: GI
In the case of `COc1ccc(CN2c3ccccc3Sc3ccccc32)c(C(F)(F)F)c1`, the inhibition of growth at 10 µM is reported as 90%.

Test system: not listed separately
Assay: Cytotoxicity against human MDA-MB-435 cells assessed as growth inhibition at 10 uM after 48 hrs by SRB assay relative to control
Type: functional
Settings: MDA-MB-435, 48 h, read-out: GI
With `COc1ccc(CN2c3ccccc3Sc3ccccc32)c(C(F)(F)F)c1` the inhibition of growth at 10 µM was 100%.

Test system: not listed separately
Assay: Cytotoxicity against human MCF7 cells assessed as growth inhibition at 10 uM after 48 hrs by SRB assay relative to control
Type: functional
Settings: MCF7, 48 h, read-out: GI
For `COc1ccc(CN2c3ccccc3Sc3ccccc32)c(C(F)(F)F)c1`, the inhibition of growth at 10 µM was 76%.

Test system: not listed separately
Assay: Cytotoxicity against human U251 cells assessed as growth inhibition at 10 uM after 48 hrs by SRB assay relative to control
Type: functional
Settings: U-251, 48 h, read-out: GI
Molecule `COc1ccc(CN2c3ccccc3Sc3ccccc32)c(C(F)(F)F)c1` has an inhibition of growth at 10 µM of 79%.

Test system: not listed separately
Assay: Cytotoxicity against human SNB19 cells assessed as growth inhibition at 10 uM after 48 hrs by SRB assay relative to control
Type: functional
Settings: SNB-19, 48 h, read-out: GI
Work on `COc1ccc(CN2c3ccccc3Sc3ccccc32)c(C(F)(F)F)c1` yielded an inhibition of growth at 10 µM of 67%.

Test system: not listed separately
Assay: Cytotoxicity against human COLO205 cells assessed as growth inhibition at 10 uM after 48 hrs by SRB assay relative to control
Type: functional
Settings: COLO 205, 48 h, read-out: GI
In the case of `COc1ccc(CN2c3ccccc3Sc3ccccc32)c(C(F)(F)F)c1`, the inhibition of growth at 10 µM is reported as 100%.

Test system: not listed separately
Assay: Cytotoxicity against human CCRF-CEM cells assessed as growth inhibition at 10 uM after 48 hrs by SRB assay relative to control
Type: functional
Settings: read-out: GI
`COc1ccc(CN2c3ccccc3Sc3ccccc32)c(C(F)(F)F)c1` gave an inhibition of growth at 10 µM of 90%.

Test system: not listed separately
Assay: Cytotoxicity against human MDA-MB-468 cells assessed as growth inhibition at 10 uM after 48 hrs by SRB assay relative to control
Type: functional
Settings: MDA-MB-468, 48 h, read-out: GI
Work on `COc1ccc(CN2c3ccccc3Sc3ccccc32)c(C(F)(F)F)c1` yielded an inhibition of growth at 10 µM of 81%.

Test system: not listed separately
Assay: Cytotoxicity against human OVCAR3 cells assessed as growth inhibition at 10 uM after 48 hrs by SRB assay relative to control
Type: functional
Settings: OVCAR-3, 48 h, read-out: GI
Molecule `COc1ccc(CN2c3ccccc3Sc3ccccc32)c(C(F)(F)F)c1` has an inhibition of growth at 10 µM of 94%.

Test system: not listed separately
Assay: Cytotoxicity against human UO31 cells assessed as growth inhibition at 10 uM after 48 hrs by SRB assay relative to control
Type: functional
Settings: UO-31, 48 h, read-out: GI
In the case of `COc1ccc(CN2c3ccccc3Sc3ccccc32)c(C(F)(F)F)c1`, the inhibition of growth at 10 µM is reported as 54%.

Test system: not listed separately
Assay: Cytotoxicity against human SW620 cells assessed as growth inhibition at 10 uM after 48 hrs by SRB assay relative to control
Type: functional
Settings: SW-620, 48 h, read-out: GI
`COc1ccc(CN2c3ccccc3Sc3ccccc32)c(C(F)(F)F)c1` gave an inhibition of growth at 10 µM of 74%.

Test system: not listed separately
Assay: Cytotoxicity against human UACC257 cells assessed as growth inhibition at 10 uM after 48 hrs by SRB assay relative to control
Type: functional
Settings: UACC-257, 48 h, read-out: GI
`COc1ccc(CN2c3ccccc3Sc3ccccc32)c(C(F)(F)F)c1` gave an inhibition of growth at 10 µM of 46%.

Test system: not listed separately
Assay: Cytotoxicity against human T47D cells assessed as growth inhibition at 10 uM after 48 hrs by SRB assay relative to control
Type: functional
Settings: read-out: GI
`COc1ccc(CN2c3ccccc3Sc3ccccc32)c(C(F)(F)F)c1` gave an inhibition of growth at 10 µM of 74%.

Test system: not listed separately
Assay: Cytotoxicity against human NCI-H522 cells assessed as growth inhibition at 10 uM after 48 hrs by SRB assay relative to control
Type: functional
Settings: NCI-H522, 48 h, read-out: GI
Work on `COc1ccc(CN2c3ccccc3Sc3ccccc32)c(C(F)(F)F)c1` yielded an inhibition of growth at 10 µM of 100%.

Test system: not listed separately
Assay: Cytotoxicity against human EKVX cells assessed as growth inhibition at 10 uM after 48 hrs by SRB assay relative to control
Type: functional
Settings: read-out: GI
`COc1ccc(CN2c3ccccc3Sc3ccccc32)c(C(F)(F)F)c1` gave an inhibition of growth at 10 µM of 50%.

Test system: not listed separately
Assay: Cytotoxicity against human HCT116 cells assessed as growth inhibition at 10 uM after 48 hrs by SRB assay relative to control
Type: functional
Settings: HCT-116, 48 h, read-out: GI
Work on `COc1ccc(CN2c3ccccc3Sc3ccccc32)c(C(F)(F)F)c1` yielded an inhibition of growth at 10 µM of 92%.

Test system: not listed separately
Assay: Cytotoxicity against human NCI-H23 cells assessed as growth inhibition at 10 uM after 48 hrs by SRB assay relative to control
Type: functional
Settings: NCI-H23, 48 h, read-out: GI
For `COc1ccc(CN2c3ccccc3Sc3ccccc32)c(C(F)(F)F)c1`, the inhibition of growth at 10 µM was 56%.

Organism: Ovis aries
Assay: Inhibition of sheep brain tubulin polymerization at 100 uM by DAPI staining-based fluorimetric method relative to control
Settings: not given
In the case of `COc1ccc(CN2c3ccccc3Sc3ccccc32)c(C(F)(F)F)c1`, the inhibition is reported as 15%.

Test system: not listed separately
Assay: Cytotoxicity against human MALME-3M cells assessed as growth inhibition at 10 uM after 48 hrs by SRB assay relative to control
Type: functional
Settings: read-out: GI
For `COc1ccc(CN2c3ccccc3Sc3ccccc32)c(C(F)(F)F)c1`, the inhibition of growth at 10 µM was 7%.

Test system: not listed separately
Assay: Cytotoxicity against human M14 cells assessed as growth inhibition at 10 uM after 48 hrs by SRB assay relative to control
Type: functional
Settings: M14, 48 h, read-out: GI
In the case of `COc1ccc(CN2c3ccccc3Sc3ccccc32)c(C(F)(F)F)c1`, the inhibition of growth at 10 µM is reported as 92%.

Test system: not listed separately
Assay: Cytotoxicity against human A549 cells assessed as growth inhibition at 10 uM after 48 hrs by SRB assay relative to control
Type: functional
Settings: A549, 48 h, read-out: GI
Molecule `COc1ccc(CN2c3ccccc3Sc3ccccc32)c(C(F)(F)F)c1` has an inhibition of growth at 10 µM of 67%.

Test system: not listed separately
Assay: Cytotoxicity against human NCI-ADR-RES cells assessed as growth inhibition at 10 uM after 48 hrs by SRB assay relative to control
Type: functional
Settings: read-out: GI
Work on `COc1ccc(CN2c3ccccc3Sc3ccccc32)c(C(F)(F)F)c1` yielded an inhibition of growth at 10 µM of 77%.

Test system: not listed separately
Assay: Cytotoxicity against human SF268 cells assessed as growth inhibition at 10 uM after 48 hrs by SRB assay relative to control
Type: functional
Settings: SF-268, 48 h, read-out: GI
Work on `COc1ccc(CN2c3ccccc3Sc3ccccc32)c(C(F)(F)F)c1` yielded an inhibition of growth at 10 µM of 44%.

Test system: not listed separately
Assay: Cytotoxicity against human 786-0 cells assessed as growth inhibition at 10 uM after 48 hrs by SRB assay relative to control
Type: functional
Settings: 786-0, 48 h, read-out: GI
For `COc1ccc(CN2c3ccccc3Sc3ccccc32)c(C(F)(F)F)c1`, the inhibition of growth at 10 µM was 58%.

Test system: not listed separately
Assay: Cytotoxicity against human OVCAR5 cells assessed as growth inhibition at 10 uM after 48 hrs by SRB assay relative to control
Type: functional
Settings: OVCAR-5, 48 h, read-out: GI
With `COc1ccc(CN2c3ccccc3Sc3ccccc32)c(C(F)(F)F)c1` the inhibition of growth at 10 µM was 35%.

Test system: not listed separately
Assay: Cytotoxicity against human RPMI8226 cells assessed as growth inhibition at 10 uM after 48 hrs by SRB assay relative to control
Type: functional
Settings: RPMI-8226, 48 h, read-out: GI
With `COc1ccc(CN2c3ccccc3Sc3ccccc32)c(C(F)(F)F)c1` the inhibition of growth at 10 µM was 71%.

Test system: not listed separately
Assay: Cytotoxicity against human HT-29 cells assessed as growth inhibition at 10 uM after 48 hrs by SRB assay relative to control
Type: functional
Settings: HT-29, 48 h, read-out: GI
Work on `COc1ccc(CN2c3ccccc3Sc3ccccc32)c(C(F)(F)F)c1` yielded an inhibition of growth at 10 µM of 98%.

Test system: not listed separately
Assay: Cytotoxicity against human NCI-H322M cells assessed as growth inhibition at 10 uM after 48 hrs by SRB assay relative to control
Type: functional
Settings: read-out: GI
For `COc1ccc(CN2c3ccccc3Sc3ccccc32)c(C(F)(F)F)c1`, the inhibition of growth at 10 µM was 51%.

Test system: not listed separately
Assay: Cytotoxicity against human RXF393 cells assessed as growth inhibition at 10 uM after 48 hrs by SRB assay relative to control
Type: functional
Settings: RXF 393, 48 h, read-out: GI
Molecule `COc1ccc(CN2c3ccccc3Sc3ccccc32)c(C(F)(F)F)c1` has an inhibition of growth at 10 µM of 100%.

Test system: not listed separately
Assay: Cytotoxicity against human OVCAR4 cells assessed as growth inhibition at 10 uM after 48 hrs by SRB assay relative to control
Type: functional
Settings: OVCAR-4, 48 h, read-out: GI
For `COc1ccc(CN2c3ccccc3Sc3ccccc32)c(C(F)(F)F)c1`, the inhibition of growth at 10 µM was 56%.

Test system: not listed separately
Assay: Cytotoxicity against human HCT15 cells assessed as growth inhibition at 10 uM after 48 hrs by SRB assay relative to control
Type: functional
Settings: HCT-15, 48 h, read-out: GI
`COc1ccc(CN2c3ccccc3Sc3ccccc32)c(C(F)(F)F)c1` gave an inhibition of growth at 10 µM of 63%.

Test system: not listed separately
Assay: Cytotoxicity against human HL-60(TB) cells assessed as growth inhibition at 10 uM after 48 hrs by SRB assay relative to control
Type: functional
Settings: HL-60, 48 h, read-out: GI
Work on `COc1ccc(CN2c3ccccc3Sc3ccccc32)c(C(F)(F)F)c1` yielded an inhibition of growth at 10 µM of 76%.

Test system: not listed separately
Assay: Cytotoxicity against human SK-MEL-2 cells assessed as growth inhibition at 10 uM after 48 hrs by SRB assay relative to control
Type: functional
Settings: SK-MEL-2, 48 h, read-out: GI
In the case of `COc1ccc(CN2c3ccccc3Sc3ccccc32)c(C(F)(F)F)c1`, the inhibition of growth at 10 µM is reported as 96%.

Test system: not listed separately
Assay: Cytotoxicity against human KM12 cells assessed as growth inhibition at 10 uM after 48 hrs by SRB assay relative to control
Type: functional
Settings: KM12, 48 h, read-out: GI
`COc1ccc(CN2c3ccccc3Sc3ccccc32)c(C(F)(F)F)c1` showed an inhibition of growth at 10 µM of 80%.

Test system: not listed separately
Assay: Cytotoxicity against human MOLT4 cells assessed as growth inhibition at 10 uM after 48 hrs by SRB assay relative to control
Type: functional
Settings: MOLT-4, 48 h, read-out: GI
Molecule `COc1ccc(CN2c3ccccc3Sc3ccccc32)c(C(F)(F)F)c1` has an inhibition of growth at 10 µM of 76%.

From ChEMBL document CHEMBL3862012, “Methylene versus carbonyl bridge in the structure of new tubulin polymerization inhibitors with tricyclic A-rings” (Bioorg Med Chem, 2016)
